Data from article PMC10986179, “PCC0208057 as a small molecule inhibitor of TRPC6 in the treatment of prostate cancer” (Frontiers in Pharmacology, 2024).

Target: T1, TRPC6 (transient receptor potential canonical 6) (Homo sapiens, UniProt Q9Y210)
T1 sequence (Q9Y210 1-931): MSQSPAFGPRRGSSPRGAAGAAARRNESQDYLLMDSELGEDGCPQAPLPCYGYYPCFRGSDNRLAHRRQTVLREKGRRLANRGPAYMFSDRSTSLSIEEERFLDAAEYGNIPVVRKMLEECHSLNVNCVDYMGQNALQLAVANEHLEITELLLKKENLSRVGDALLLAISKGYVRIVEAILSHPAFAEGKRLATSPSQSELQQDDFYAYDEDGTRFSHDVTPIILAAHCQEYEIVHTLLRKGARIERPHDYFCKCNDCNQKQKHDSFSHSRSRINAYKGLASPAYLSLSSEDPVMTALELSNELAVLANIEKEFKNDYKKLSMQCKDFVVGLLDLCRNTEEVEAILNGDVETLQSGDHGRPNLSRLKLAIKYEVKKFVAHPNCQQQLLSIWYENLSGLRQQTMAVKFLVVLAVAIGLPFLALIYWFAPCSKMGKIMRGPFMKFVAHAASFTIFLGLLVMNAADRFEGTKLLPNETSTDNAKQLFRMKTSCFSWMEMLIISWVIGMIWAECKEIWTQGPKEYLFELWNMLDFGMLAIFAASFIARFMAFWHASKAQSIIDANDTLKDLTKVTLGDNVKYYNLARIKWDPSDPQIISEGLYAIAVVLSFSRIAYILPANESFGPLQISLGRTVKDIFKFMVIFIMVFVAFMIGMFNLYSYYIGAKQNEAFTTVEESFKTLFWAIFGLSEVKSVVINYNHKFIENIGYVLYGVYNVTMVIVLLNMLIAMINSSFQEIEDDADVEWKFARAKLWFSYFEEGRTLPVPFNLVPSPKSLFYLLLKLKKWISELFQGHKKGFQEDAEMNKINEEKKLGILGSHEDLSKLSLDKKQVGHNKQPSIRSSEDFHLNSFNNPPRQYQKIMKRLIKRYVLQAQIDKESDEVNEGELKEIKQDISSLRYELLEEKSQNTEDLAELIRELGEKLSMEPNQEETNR
Assay: Fluo-4 Ca2+ assay in TRPC6-HEK293 cells; also electrophysiology of GSK1702934A-evoked TRPC6 currents
Type: cell-based

IC50: 2440 nM
SMILES: COc1cccc2sc(N(CCN3CCCC3)C(=O)c3ccc4c(c3)OCO4)nc12 [PCC0208057]
